The values that follow are results of earlier work, collected in patent US6685965B1, “PROCESS FOR STABILIZING LEVOGYRE ASCORBIC ACID (LAA), A STABLE AQUEOUS LAA COMPOSITION, A PROCESS FOR PREPARING A STABLE TOPICAL SOLUTION, AN EMULSION, A VITAMIN PRODUCT, AND A METHOD FOR COSMETIC, PHARMACEUTICAL OR NUTRITIONAL TREATMENT” (Industria E Comercio de Cosmeticos Natura LTDA., priority 1997, dated 2004).

One data set relates to human fibroblasts. The conditions noted are these: human fibroblasts in vitro, in the presence of LAA.
The subject of data set [1] is glucosaminoglycines, components of the extracellular matrix of the dermis. As to conditions: in the presence of LAA.

In the case of `O=C1OC(C(O)CO)C(O)=C1O` (stereo not shown) [LAA, levogyre ascorbic acid], in the data set on human fibroblasts, the “efficiency of mRNA in the translation of the polypeptidic chains of collagen” value is on record as “about 2 times”; the “increase in the synthesis of mRNA (collagens of type I and type III)” value is reported as 2 to 3 times. Moreover, in data set [1], the “increase in deposition of glucosaminoglycines in the extracellular matrix” value is on record as 50% and the “increase in synthesis of glucosaminoglycines” value is given as 30 to 90%.
